Source: ChEMBL document CHEMBL1909294, “Translating clinical findings into knowledge in drug safety evaluation--drug induced liver injury prediction system (DILIps)” (PLoS Comput Biol, 2011)

What was measured:
[1] = system: Hepatotoxicity;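 on HepSE Combined Scores: combined hepatic side effect score as listed in the training data of the Drug Induced Liver Injury Prediction System (DILIps)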;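 on HepSE bilirubinemia: bilirubinemia hepatic side effect score drawn from the DILIps training data, a prediction system for drug-induced liver injury; call rule not given here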;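 on HepSE cholelithiasis: hepatic side effect score for cholelithiasis, drawn from the DILIps training data for predicting drug-induced liver injury; call rule not given here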; on HepSE hepatic failure: call rule not given here;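 on HepSE hepatomegaly: hepatic side effect score for hepatomegaly, taken from the training set of the DILIps drug-induced liver injury prediction system; call rule not given here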;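 on HepSE jaundice: Jaundice-related hepatic side-effect score drawn from the training data of the DILIps (drug-induced liver injury prediction system); call rule not given here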;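 on HepSE liver function tests abnormal: hepatic side effect score taken from the DILIps (drug-induced liver injury prediction system) training data, here covering abnormal liver function test findings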
[2] = system: Hepatotoxicity; remark: listed apart in the source;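 on HepSE Combined Scores: combined hepatic side effect score as listed in the training data of the Drug Induced Liver Injury Prediction System (DILIps)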;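 on HepSE bilirubinemia: bilirubinemia hepatic side effect score drawn from the DILIps training data, a prediction system for drug-induced liver injury; call rule not given here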;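 on HepSE cholelithiasis: hepatic side effect score for cholelithiasis, drawn from the DILIps training data for predicting drug-induced liver injury; call rule not given here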; on HepSE hepatic failure: call rule not given here;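 on HepSE hepatomegaly: hepatic side effect score for hepatomegaly, taken from the training set of the DILIps drug-induced liver injury prediction system; call rule not given here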;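 on HepSE liver function tests abnormal: hepatic side effect score taken from the DILIps (drug-induced liver injury prediction system) training data, here covering abnormal liver function test findings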
[3] = system: Hepatotoxicity; remark: listed apart in the source;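 on HepSE Combined Scores: combined hepatic side effect score as listed in the training data of the Drug Induced Liver Injury Prediction System (DILIps)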;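 on HepSE bilirubinemia: bilirubinemia hepatic side effect score drawn from the DILIps training data, a prediction system for drug-induced liver injury; call rule not given here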;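 on HepSE cholelithiasis: hepatic side effect score for cholelithiasis, drawn from the DILIps training data for predicting drug-induced liver injury; call rule not given here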; on HepSE hepatic failure: call rule not given here;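 on HepSE hepatomegaly: hepatic side effect score for hepatomegaly, taken from the training set of the DILIps drug-induced liver injury prediction system; call rule not given here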;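 on HepSE liver function tests abnormal: hepatic side effect score taken from the DILIps (drug-induced liver injury prediction system) training data, here covering abnormal liver function test findings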
[4] = system: Hepatotoxicity; remark: listed apart in the source;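 on HepSE Combined Scores: combined hepatic side effect score as listed in the training data of the Drug Induced Liver Injury Prediction System (DILIps)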;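 on HepSE bilirubinemia: bilirubinemia hepatic side effect score drawn from the DILIps training data, a prediction system for drug-induced liver injury; call rule not given here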;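 on HepSE cholelithiasis: hepatic side effect score for cholelithiasis, drawn from the DILIps training data for predicting drug-induced liver injury; call rule not given here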; on HepSE hepatic failure: call rule not given here;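 on HepSE hepatomegaly: hepatic side effect score for hepatomegaly, taken from the training set of the DILIps drug-induced liver injury prediction system; call rule not given here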;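 on HepSE liver function tests abnormal: hepatic side effect score taken from the DILIps (drug-induced liver injury prediction system) training data, here covering abnormal liver function test findings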
[5] = system: Hepatotoxicity; remark: listed apart in the source; on HepSE hepatic failure: call rule not given here
[6] = system: Hepatotoxicity; remark: listed apart in the source; on HepSE hepatic failure: call rule not given here
[7] = system: Hepatotoxicity; remark: listed apart in the source
[8] = system: Hepatotoxicity; remark: listed apart in the source
[9] = system: Hepatotoxicity; remark: listed apart in the source
[10] = system: Hepatotoxicity; remark: listed apart in the source
[11] = system: Hepatotoxicity; remark: listed apart in the source
[12] = system: Hepatotoxicity; remark: listed apart in the source
[13] = system: Hepatotoxicity; remark: listed apart in the source
[14] = system: Hepatotoxicity; remark: listed apart in the source

COC(=O)C1=C(C)NC(C)=C(C(=O)OCCN(C)Cc2ccccc2)C1c1cccc([N+](=O)[O-])c1 (stereo not drawn) [NICARDIPINE]
HepSE_bilirubinemia [1]: 0 | HepSE_liver function tests abnormal [2]: 0 | HepSE_cholelithiasis [3]: 0 | HepSE_hepatomegaly [4]: 0 | HepSE_liver fatty [5]: 0 | HepSE_hepatic failure [6]: 0 | HepSE_hepatitis [7]: 0 | HepSE_Combined Scores [8]: 0 | HepSE_jaundice [9]: 0 | HepSE_cholecystitis [10]: 0 | HepSE_elevated liver function tests [11]: 0 | HepSE_liver disease [12]: 0 | HepSE_hepatic necrosis [13]: 0 | HepSE_cirrhosis [14]: 0

CCCN1C[C@H](CSC)C[C@@H]2c3cccc4[nH]cc(c34)C[C@H]21 [PERGOLIDE]
HepSE_bilirubinemia [1]: 0 | HepSE_liver function tests abnormal [2]: 1 | HepSE_cholelithiasis [3]: 1 | HepSE_hepatomegaly [4]: 1 | HepSE_liver fatty [5]: 0 | HepSE_hepatic failure [6]: 0 | HepSE_hepatitis [7]: 1 | HepSE_Combined Scores [8]: 6 | HepSE_jaundice [9]: 1 | HepSE_cholecystitis [10]: 1 | HepSE_elevated liver function tests [11]: 0 | HepSE_liver disease [12]: 0 | HepSE_hepatic necrosis [13]: 0 | HepSE_cirrhosis [14]: 0

O=C(N[C@H](CO)[C@H](O)c1ccc([N+](=O)[O-])cc1)C(Cl)Cl [CHLORAMPHENICOL]
HepSE_bilirubinemia [1]: 0 | HepSE_liver function tests abnormal [2]: 0 | HepSE_cholelithiasis [3]: 0 | HepSE_hepatomegaly [4]: 0 | HepSE_liver fatty [5]: 0 | HepSE_hepatic failure [6]: 0 | HepSE_hepatitis [7]: 0 | HepSE_Combined Scores [8]: 0 | HepSE_jaundice [9]: 0 | HepSE_cholecystitis [10]: 0 | HepSE_elevated liver function tests [11]: 0 | HepSE_liver disease [12]: 0 | HepSE_hepatic necrosis [13]: 0 | HepSE_cirrhosis [14]: 0

CC(C)NCC(O)c1ccc(NS(C)(=O)=O)cc1 (stereo not drawn) [SOTALOL]
HepSE_bilirubinemia [1]: 0 | HepSE_liver function tests abnormal [2]: 0 | HepSE_cholelithiasis [3]: 0 | HepSE_hepatomegaly [4]: 0 | HepSE_liver fatty [5]: 0 | HepSE_hepatic failure [6]: 0 | HepSE_hepatitis [7]: 0 | HepSE_Combined Scores [8]: 0 | HepSE_jaundice [9]: 0 | HepSE_cholecystitis [10]: 0 | HepSE_elevated liver function tests [11]: 0 | HepSE_liver disease [12]: 0 | HepSE_hepatic necrosis [13]: 0 | HepSE_cirrhosis [14]: 0

CC[C@@H]([C@H](C)O)n1ncn(-c2ccc(N3CCN(c4ccc(OC[C@@H]5CO[C@@](Cn6cncn6)(c6ccc(F)cc6F)C5)cc4)CC3)cc2)c1=O [POSACONAZOLE]
HepSE_bilirubinemia [1]: 1 | HepSE_liver function tests abnormal [2]: 1 | HepSE_cholelithiasis [3]: 0 | HepSE_hepatomegaly [4]: 1 | HepSE_liver fatty [5]: 0 | HepSE_hepatic failure [6]: 1 | HepSE_hepatitis [7]: 1 | HepSE_Combined Scores [8]: 6 | HepSE_jaundice [9]: 1 | HepSE_cholecystitis [10]: 0 | HepSE_elevated liver function tests [11]: 0 | HepSE_liver disease [12]: 0 | HepSE_hepatic necrosis [13]: 0 | HepSE_cirrhosis [14]: 0

CC(C(=O)O)c1cccc(Oc2ccccc2)c1 (stereo not drawn) [FENOPROFEN]
HepSE_bilirubinemia [1]: 0 | HepSE_liver function tests abnormal [2]: 0 | HepSE_cholelithiasis [3]: 0 | HepSE_hepatomegaly [4]: 0 | HepSE_liver fatty [5]: 0 | HepSE_hepatic failure [6]: 0 | HepSE_hepatitis [7]: 1 | HepSE_Combined Scores [8]: 2 | HepSE_jaundice [9]: 1 | HepSE_cholecystitis [10]: 0 | HepSE_elevated liver function tests [11]: 0 | HepSE_liver disease [12]: 0 | HepSE_hepatic necrosis [13]: 0 | HepSE_cirrhosis [14]: 0

NC(=O)CC[C@H](N)C(=O)O [GLUTAMINE]
HepSE_bilirubinemia [1]: 0 | HepSE_liver function tests abnormal [2]: 0 | HepSE_cholelithiasis [3]: 0 | HepSE_hepatomegaly [4]: 0 | HepSE_liver fatty [5]: 0 | HepSE_hepatic failure [6]: 0 | HepSE_hepatitis [7]: 0 | HepSE_Combined Scores [8]: 0 | HepSE_jaundice [9]: 0 | HepSE_cholecystitis [10]: 0 | HepSE_elevated liver function tests [11]: 0 | HepSE_liver disease [12]: 0 | HepSE_hepatic necrosis [13]: 0 | HepSE_cirrhosis [14]: 0

CCc1cccc2c3c([nH]c12)C(CC)(CC(=O)O)OCC3 (stereo not drawn) [ETODOLAC]
HepSE_bilirubinemia [1]: 0 | HepSE_liver function tests abnormal [2]: 0 | HepSE_cholelithiasis [3]: 0 | HepSE_hepatomegaly [4]: 0 | HepSE_liver fatty [5]: 0 | HepSE_hepatic failure [6]: 1 | HepSE_hepatitis [7]: 1 | HepSE_Combined Scores [8]: 4 | HepSE_jaundice [9]: 1 | HepSE_cholecystitis [10]: 0 | HepSE_elevated liver function tests [11]: 0 | HepSE_liver disease [12]: 0 | HepSE_hepatic necrosis [13]: 1 | HepSE_cirrhosis [14]: 0

C[C@H]1C[C@H]2[C@@H]3CCC4=CC(=O)C=C[C@]4(C)[C@@]3(Cl)[C@@H](O)C[C@]2(C)[C@@]1(O)C(=O)CO [BECLOMETHASONE]
HepSE_bilirubinemia [1]: 0 | HepSE_liver function tests abnormal [2]: 0 | HepSE_cholelithiasis [3]: 0 | HepSE_hepatomegaly [4]: 0 | HepSE_liver fatty [5]: 0 | HepSE_hepatic failure [6]: 0 | HepSE_hepatitis [7]: 0 | HepSE_Combined Scores [8]: 0 | HepSE_jaundice [9]: 0 | HepSE_cholecystitis [10]: 0 | HepSE_elevated liver function tests [11]: 0 | HepSE_liver disease [12]: 0 | HepSE_hepatic necrosis [13]: 0 | HepSE_cirrhosis [14]: 0

Cc1ccc(N(CC2=NCCN2)c2cccc(O)c2)cc1 [PHENTOLAMINE]
HepSE_bilirubinemia [1]: 0 | HepSE_liver function tests abnormal [2]: 0 | HepSE_cholelithiasis [3]: 0 | HepSE_hepatomegaly [4]: 0 | HepSE_liver fatty [5]: 0 | HepSE_hepatic failure [6]: 0 | HepSE_hepatitis [7]: 0 | HepSE_Combined Scores [8]: 0 | HepSE_jaundice [9]: 0 | HepSE_cholecystitis [10]: 0 | HepSE_elevated liver function tests [11]: 0 | HepSE_liver disease [12]: 0 | HepSE_hepatic necrosis [13]: 0 | HepSE_cirrhosis [14]: 0

Cc1[nH]cnc1CN1CCc2c(c3ccccc3n2C)C1=O [ALOSETRON]
HepSE_bilirubinemia [1]: 0 | HepSE_liver function tests abnormal [2]: 0 | HepSE_cholelithiasis [3]: 0 | HepSE_hepatomegaly [4]: 0 | HepSE_liver fatty [5]: 0 | HepSE_hepatic failure [6]: 0 | HepSE_hepatitis [7]: 1 | HepSE_Combined Scores [8]: 3 | HepSE_jaundice [9]: 1 | HepSE_cholecystitis [10]: 1 | HepSE_elevated liver function tests [11]: 0 | HepSE_liver disease [12]: 0 | HepSE_hepatic necrosis [13]: 0 | HepSE_cirrhosis [14]: 0

CN(C)c1cc(NC(=O)CNC(C)(C)C)c(O)c2c1C[C@H]1C[C@H]3[C@H](N(C)C)C(O)=C(C(N)=O)C(=O)[C@@]3(O)C(O)=C1C2=O [TIGECYCLINE]
HepSE_bilirubinemia [1]: 1 | HepSE_liver function tests abnormal [2]: 1 | HepSE_cholelithiasis [3]: 0 | HepSE_hepatomegaly [4]: 0 | HepSE_liver fatty [5]: 0 | HepSE_hepatic failure [6]: 1 | HepSE_hepatitis [7]: 0 | HepSE_Combined Scores [8]: 4 | HepSE_jaundice [9]: 1 | HepSE_cholecystitis [10]: 0 | HepSE_elevated liver function tests [11]: 0 | HepSE_liver disease [12]: 0 | HepSE_hepatic necrosis [13]: 0 | HepSE_cirrhosis [14]: 0

CCN(CC)C(=O)/C(C#N)=C/c1cc(O)c(O)c([N+](=O)[O-])c1 [ENTACAPONE]
HepSE_bilirubinemia [1]: 1 | HepSE_liver function tests abnormal [2]: 0 | HepSE_cholelithiasis [3]: 1 | HepSE_hepatomegaly [4]: 0 | HepSE_liver fatty [5]: 0 | HepSE_hepatic failure [6]: 1 | HepSE_hepatitis [7]: 1 | HepSE_Combined Scores [8]: 5 | HepSE_jaundice [9]: 0 | HepSE_cholecystitis [10]: 1 | HepSE_elevated liver function tests [11]: 0 | HepSE_liver disease [12]: 0 | HepSE_hepatic necrosis [13]: 0 | HepSE_cirrhosis [14]: 0

CCC[C@@H]1C[C@@H](C(=O)N[C@@H]([C@H]2O[C@H](SC)[C@H](O)[C@@H](O)[C@H]2O)[C@H](C)Cl)N(C)C1 [CLINDAMYCIN]
HepSE_bilirubinemia [1]: 0 | HepSE_liver function tests abnormal [2]: 0 | HepSE_cholelithiasis [3]: 0 | HepSE_hepatomegaly [4]: 0 | HepSE_liver fatty [5]: 0 | HepSE_hepatic failure [6]: 0 | HepSE_hepatitis [7]: 0 | HepSE_Combined Scores [8]: 1 | HepSE_jaundice [9]: 1 | HepSE_cholecystitis [10]: 0 | HepSE_elevated liver function tests [11]: 0 | HepSE_liver disease [12]: 0 | HepSE_hepatic necrosis [13]: 0 | HepSE_cirrhosis [14]: 0

C#CC1(O)CCC2C3CCC4=CC(=O)CCC4C3C(=C)CC21CC (stereo not drawn) [IMPLANON]
HepSE_bilirubinemia [1]: 0 | HepSE_liver function tests abnormal [2]: 0 | HepSE_cholelithiasis [3]: 0 | HepSE_hepatomegaly [4]: 0 | HepSE_liver fatty [5]: 0 | HepSE_hepatic failure [6]: 0 | HepSE_hepatitis [7]: 0 | HepSE_Combined Scores [8]: 0 | HepSE_jaundice [9]: 0 | HepSE_cholecystitis [10]: 0 | HepSE_elevated liver function tests [11]: 0 | HepSE_liver disease [12]: 0 | HepSE_hepatic necrosis [13]: 0 | HepSE_cirrhosis [14]: 0

C[C@]1(O)CC[C@H]2[C@@H]3CCC4=CC(=O)CC[C@]4(C)[C@@]3(F)[C@@H](O)C[C@@]21C [FLUOXYMESTERONE]
HepSE_bilirubinemia [1]: 0 | HepSE_liver function tests abnormal [2]: 0 | HepSE_cholelithiasis [3]: 0 | HepSE_hepatomegaly [4]: 0 | HepSE_liver fatty [5]: 0 | HepSE_hepatic failure [6]: 0 | HepSE_hepatitis [7]: 0 | HepSE_Combined Scores [8]: 1 | HepSE_jaundice [9]: 1 | HepSE_cholecystitis [10]: 0 | HepSE_elevated liver function tests [11]: 0 | HepSE_liver disease [12]: 0 | HepSE_hepatic necrosis [13]: 0 | HepSE_cirrhosis [14]: 0

CC#C[C@]1(O)CC[C@H]2[C@@H]3CCC4=CC(=O)CCC4=C3[C@@H](c3ccc(N(C)C)cc3)C[C@@]21C [MIFEPRISTONE]
HepSE_bilirubinemia [1]: 0 | HepSE_liver function tests abnormal [2]: 0 | HepSE_cholelithiasis [3]: 0 | HepSE_hepatomegaly [4]: 0 | HepSE_liver fatty [5]: 0 | HepSE_hepatic failure [6]: 0 | HepSE_hepatitis [7]: 0 | HepSE_Combined Scores [8]: 0 | HepSE_jaundice [9]: 0 | HepSE_cholecystitis [10]: 0 | HepSE_elevated liver function tests [11]: 0 | HepSE_liver disease [12]: 0 | HepSE_hepatic necrosis [13]: 0 | HepSE_cirrhosis [14]: 0
